Measurements taken from ChEMBL document CHEMBL5500385, “Macrocyclization strategy for improving candidate profiles in medicinal chemistry” (Eur J Med Chem, 2024).

Assays:
[1] = target: T1, ATP-citrate synthase (Homo sapiens, UniProt P53396)
T1 sequence (P53396 whole entry): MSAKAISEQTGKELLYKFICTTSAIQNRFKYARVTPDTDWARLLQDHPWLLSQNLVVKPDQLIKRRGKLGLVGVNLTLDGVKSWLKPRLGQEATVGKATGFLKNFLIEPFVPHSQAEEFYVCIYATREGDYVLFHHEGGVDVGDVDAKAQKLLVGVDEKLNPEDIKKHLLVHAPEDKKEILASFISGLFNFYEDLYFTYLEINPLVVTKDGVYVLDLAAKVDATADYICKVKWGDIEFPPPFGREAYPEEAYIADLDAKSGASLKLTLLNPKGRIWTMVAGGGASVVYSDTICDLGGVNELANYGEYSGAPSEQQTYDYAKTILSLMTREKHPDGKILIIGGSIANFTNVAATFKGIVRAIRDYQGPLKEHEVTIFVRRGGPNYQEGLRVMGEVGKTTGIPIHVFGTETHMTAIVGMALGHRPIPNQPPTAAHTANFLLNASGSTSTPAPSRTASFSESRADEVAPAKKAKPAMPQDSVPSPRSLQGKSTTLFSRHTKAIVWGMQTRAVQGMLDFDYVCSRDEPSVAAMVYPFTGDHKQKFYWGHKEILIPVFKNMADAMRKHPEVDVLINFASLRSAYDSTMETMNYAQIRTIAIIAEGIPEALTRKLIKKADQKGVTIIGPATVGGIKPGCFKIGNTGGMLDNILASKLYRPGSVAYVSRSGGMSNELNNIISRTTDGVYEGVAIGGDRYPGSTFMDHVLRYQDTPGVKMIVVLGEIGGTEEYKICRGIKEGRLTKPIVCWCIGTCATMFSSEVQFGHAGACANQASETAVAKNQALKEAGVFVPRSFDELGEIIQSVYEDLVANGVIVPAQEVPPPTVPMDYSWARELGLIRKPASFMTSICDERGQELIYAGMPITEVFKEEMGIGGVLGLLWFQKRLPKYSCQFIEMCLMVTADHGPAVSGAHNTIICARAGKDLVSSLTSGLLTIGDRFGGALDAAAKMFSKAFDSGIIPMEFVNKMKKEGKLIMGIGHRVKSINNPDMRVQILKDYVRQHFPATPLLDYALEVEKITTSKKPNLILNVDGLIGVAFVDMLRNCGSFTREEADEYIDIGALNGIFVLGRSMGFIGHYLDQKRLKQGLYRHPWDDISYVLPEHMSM
Description: Binding affinity to ATP citrate lyase (unknown origin) assessed as dissociation constant

[2] = in vitro; conditions: human, liver microsomes
[3] = target: T1, ATP-citrate synthase; remark: listed apart in the source
Description: Inhibition of ATP citrate lyase (unknown origin)

[4] = target: T2, Peptidyl-prolyl cis-trans isomerase FKBP4 (Homo sapiens, UniProt Q02790)
T2 sequence (Q02790 whole entry): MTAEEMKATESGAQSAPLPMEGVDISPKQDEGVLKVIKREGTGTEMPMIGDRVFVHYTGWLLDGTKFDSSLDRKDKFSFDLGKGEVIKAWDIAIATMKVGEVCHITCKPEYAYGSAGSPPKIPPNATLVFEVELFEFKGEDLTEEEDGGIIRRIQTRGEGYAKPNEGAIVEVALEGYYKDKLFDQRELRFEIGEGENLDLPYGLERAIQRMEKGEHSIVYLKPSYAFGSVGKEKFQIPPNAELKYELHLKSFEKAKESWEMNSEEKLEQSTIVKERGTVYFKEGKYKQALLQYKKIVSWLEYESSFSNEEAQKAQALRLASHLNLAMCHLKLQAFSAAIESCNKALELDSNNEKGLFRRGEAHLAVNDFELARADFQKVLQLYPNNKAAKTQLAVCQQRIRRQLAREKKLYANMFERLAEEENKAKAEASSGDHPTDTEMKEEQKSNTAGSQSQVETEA
Description: Binding affinity to FKBP52 (unknown origin) assessed as dissociation constant by fluorescence polarization assay

[5] = target: T2, Peptidyl-prolyl cis-trans isomerase FKBP4; remark: listed apart in the source
Description: Binding affinity to FKBP52 (unknown origin) assessed as inhibition constant by fluorescence polarization assay

[6] = target: Calcitonin gene-related peptide type 1 receptor (Homo sapiens, UniProt O60894+Q16602)
Description: Inhibition of CGRP (unknown origin)

[7] = target: Tyrosine-protein kinase JAK2 (Homo sapiens, UniProt O60674)
Description: Inhibition of JAK2 (unknown origin)

[8] = system: HEL; experiment: cells; conditions: Homo sapiens
Description: Antiproliferative activity against human HEL cells assessed as reduction in cell growth

[9] = system: SET-2; experiment: cells; conditions: Homo sapiens
Description: Antiproliferative activity against human SET2 cells assessed as reduction in cell viability

[10] = target: T3, Muscleblind-like protein 1 (Homo sapiens, UniProt Q9NR56)
T3 sequence (Q9NR56 whole entry): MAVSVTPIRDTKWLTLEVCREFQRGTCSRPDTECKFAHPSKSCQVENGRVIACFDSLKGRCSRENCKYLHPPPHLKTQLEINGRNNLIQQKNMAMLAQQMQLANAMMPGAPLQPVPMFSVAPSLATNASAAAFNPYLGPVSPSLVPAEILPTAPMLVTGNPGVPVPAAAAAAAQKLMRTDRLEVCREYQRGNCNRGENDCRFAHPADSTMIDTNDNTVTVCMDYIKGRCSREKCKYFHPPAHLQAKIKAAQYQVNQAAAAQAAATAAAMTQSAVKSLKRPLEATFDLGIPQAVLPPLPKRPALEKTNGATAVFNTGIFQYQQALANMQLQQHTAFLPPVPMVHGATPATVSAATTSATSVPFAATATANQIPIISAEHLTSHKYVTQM
Description: Binding affinity to MBNL1 (unknown origin) (1 to 272 residues) assessed as dissociation constant

[11] = target: Prothrombin (Homo sapiens, UniProt P00734)
Description: Binding affinity to thrombin (unknown origin) assessed as inhibition constant

[12] = target: Plasminogen (Homo sapiens, UniProt P00747)
Chain of Plasminogen (P00747 97-580 limits assumed): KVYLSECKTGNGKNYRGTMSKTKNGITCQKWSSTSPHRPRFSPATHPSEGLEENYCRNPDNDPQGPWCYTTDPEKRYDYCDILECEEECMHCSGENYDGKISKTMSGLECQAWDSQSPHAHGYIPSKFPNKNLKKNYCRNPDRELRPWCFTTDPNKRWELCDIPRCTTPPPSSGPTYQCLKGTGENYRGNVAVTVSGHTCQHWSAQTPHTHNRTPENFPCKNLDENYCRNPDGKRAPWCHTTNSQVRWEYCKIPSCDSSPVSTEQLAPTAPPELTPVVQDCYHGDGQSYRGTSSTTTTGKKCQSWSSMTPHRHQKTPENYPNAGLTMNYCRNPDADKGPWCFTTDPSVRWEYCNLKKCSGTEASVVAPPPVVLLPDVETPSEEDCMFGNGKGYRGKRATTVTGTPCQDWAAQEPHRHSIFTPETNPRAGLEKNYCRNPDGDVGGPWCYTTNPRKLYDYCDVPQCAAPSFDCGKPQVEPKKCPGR
Chain of Plasminogen (P00747 581-810 limits assumed): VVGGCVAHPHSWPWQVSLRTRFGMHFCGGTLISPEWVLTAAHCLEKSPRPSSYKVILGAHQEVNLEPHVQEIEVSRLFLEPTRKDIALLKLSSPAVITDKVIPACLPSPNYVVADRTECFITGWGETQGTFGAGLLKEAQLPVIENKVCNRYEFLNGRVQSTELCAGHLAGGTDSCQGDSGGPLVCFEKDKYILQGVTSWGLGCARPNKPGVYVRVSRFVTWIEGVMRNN
Description: Binding affinity to plasmin (unknown origin) assessed as inhibition constant

Chain of Tyrosine-protein kinase JAK2 (O60674 whole entry): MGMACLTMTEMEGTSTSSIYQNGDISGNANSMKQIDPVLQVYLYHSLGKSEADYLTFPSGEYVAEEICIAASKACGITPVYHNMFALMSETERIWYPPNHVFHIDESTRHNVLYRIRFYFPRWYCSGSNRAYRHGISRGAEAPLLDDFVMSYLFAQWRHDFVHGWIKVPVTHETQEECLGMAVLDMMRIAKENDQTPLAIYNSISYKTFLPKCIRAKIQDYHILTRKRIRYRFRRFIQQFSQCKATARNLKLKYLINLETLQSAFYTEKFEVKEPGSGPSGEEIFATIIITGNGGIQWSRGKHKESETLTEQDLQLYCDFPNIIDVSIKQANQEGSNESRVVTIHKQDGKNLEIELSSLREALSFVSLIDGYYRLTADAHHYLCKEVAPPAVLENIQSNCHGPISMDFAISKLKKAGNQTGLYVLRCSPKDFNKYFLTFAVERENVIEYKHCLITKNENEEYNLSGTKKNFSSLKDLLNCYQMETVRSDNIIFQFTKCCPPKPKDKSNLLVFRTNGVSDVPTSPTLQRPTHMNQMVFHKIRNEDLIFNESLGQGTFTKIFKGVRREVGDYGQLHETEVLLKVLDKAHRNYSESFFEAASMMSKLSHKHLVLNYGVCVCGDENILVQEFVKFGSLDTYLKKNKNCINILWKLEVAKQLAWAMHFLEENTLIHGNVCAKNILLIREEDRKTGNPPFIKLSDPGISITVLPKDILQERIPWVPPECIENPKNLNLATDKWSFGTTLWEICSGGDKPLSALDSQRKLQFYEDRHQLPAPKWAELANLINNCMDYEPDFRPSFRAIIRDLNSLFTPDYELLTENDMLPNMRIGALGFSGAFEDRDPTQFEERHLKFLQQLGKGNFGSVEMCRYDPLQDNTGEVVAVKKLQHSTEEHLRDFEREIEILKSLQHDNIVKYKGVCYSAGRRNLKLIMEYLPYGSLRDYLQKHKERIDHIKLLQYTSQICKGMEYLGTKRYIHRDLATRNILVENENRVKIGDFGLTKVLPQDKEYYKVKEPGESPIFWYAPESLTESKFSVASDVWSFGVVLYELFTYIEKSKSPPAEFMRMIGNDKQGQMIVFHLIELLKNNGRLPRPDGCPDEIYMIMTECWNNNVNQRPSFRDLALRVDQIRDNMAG
Chain of Calcitonin gene-related peptide type 1 receptor (Q16602 whole entry, one chain of several): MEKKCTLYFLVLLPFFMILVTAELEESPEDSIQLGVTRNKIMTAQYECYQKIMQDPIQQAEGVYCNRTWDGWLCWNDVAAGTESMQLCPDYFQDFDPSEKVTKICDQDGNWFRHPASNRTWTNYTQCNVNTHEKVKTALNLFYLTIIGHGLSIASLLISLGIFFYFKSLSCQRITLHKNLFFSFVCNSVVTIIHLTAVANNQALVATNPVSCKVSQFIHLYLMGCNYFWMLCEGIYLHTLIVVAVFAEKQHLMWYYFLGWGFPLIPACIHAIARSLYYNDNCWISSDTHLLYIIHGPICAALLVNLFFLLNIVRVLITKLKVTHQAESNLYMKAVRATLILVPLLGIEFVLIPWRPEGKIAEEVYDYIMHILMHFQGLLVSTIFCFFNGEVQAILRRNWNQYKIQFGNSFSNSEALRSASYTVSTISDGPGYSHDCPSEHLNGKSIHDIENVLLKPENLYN

For COC(=O)c1cc(Cl)c(O)c(S(=O)(=O)Nc2cc(-c3ccccc3)c(F)cc2F)c1, the Kd [1] was 128 nM, the CLint scaled [2] was 372 mL/min/kg and the IC50 [3] was 44 nM.
For COc1cccc([C@@H](CCc2ccc(OC)c(OC)c2)OC(=O)[C@@H]2CCCCN2C(=O)[C@H](c2cc(OC)c(OC)c(OC)c2)C2CCCCC2)c1, the Kd [4] was > 10000 nM.
Work on O=C1NCc2ccccc2-c2cc(c(F)cc2F)NS(=O)(=O)c2cc1cc(Cl)c2O yielded a CLint scaled [2] of 3.27 mL/min/kg.
In the case of COc1ccc(CC[C@@H](OC(=O)[C@@H]2CCCCN2C(=O)[C@H](c2cc(OC)c(OC)c(OC)c2)C2CCCCC2)c2cccc(OCCN3CCOCC3)c2)cc1OC, the Ki [5] is reported as > 50000 nM.
Cc1cc(C[C@@H](NC(=O)c2cnc3c(c2)C[C@@]2(C3)C(=O)Nc3ncccc32)C(=O)N(C)C)cc2cn[nH]c12 showed an IC50 [6] of 10 nM.
In the case of COc1ccc(CC[C@@H](OC(=O)[C@@H]2CCCCN2C(=O)[C@H](c2cc(OC)c(OC)c(OC)c2)C2CCCCC2)c2cccc(OCC(=O)O)c2)cc1OC, the Ki [5] is reported as > 50000 nM.
With Cc1cnc2nc1Nc1cccc(c1)COC/C=C/COCc1cc(ccc1OCCN1CCCC1)N2 the IC50 [7] was 6 nM, the IC50 [8] was 3060 nM and the IC50 [9] was 11100 nM.
Compound COc1ccc2nc3cc(Cl)ccc3c(NCCCCNc3nc(N)nc(N)n3)c2c1 has a Kd [10] of 300 nM.
N=C(N)c1ccc(CNC(=O)[C@H](Cc2cccc(C(=N)N)c2)NC(=O)[C@@H](CCCc2ccccc2)NS(=O)(=O)Cc2cccc(C(=O)O)c2)cc1 gave a Ki [11] of 667 nM and a Ki [12] of 0.81 nM.
